# Measurements taken from patent US4734421A, “Anti-inflammatory substituted 2-benzyl-mercapto-imidazole and pyrimidine derivatives compositions and method of use therefor” (Merck & Co., Inc., priority 1986, dated 1988).
# Columns and labels:
# Rat Foot Edema = Rat Foot Edema Assay (CFE); format: in vivo; conditions: for Edema (% inhibition): Table 2a, Dosage (μg) 30
# Protocol: (§1) The rat foot edema assay CFE and the topical mouse ear assay were used to evaluate the anti-inflammatory activity of the novel compounds of the present invention. These are established assay for screening non steroridal anti-inflammatory agents.
# Representative compounds of formula (I) or (II) were tested according to the well-established procedures of rat foot edema assay published in 1962 by C. A. Winter, E. A. Risley and G. W. Nuss, Proc Soc Exp Biol Med. III, 544 (1962).
# Results: The effect of representative compounds on Rat Foot Edema
# Mouse Ear Edema = test: Topical Mouse Ear Assay (Mouse Ear Edema); format: in vivo; conditions: Table 1, Dosage 300 μg, irritant (PMA or AA) not given
# Protocol: as §1
# The right ears of mice (5 mice per group) were treated topically with either 5μ PMA ([…]) or 1000μ AA alone or with the test compound in 25μ of vehicle. The vehicle was water/pyridine/acetone (1:2:97). A control group of mice received the vehicle only. The mice were allowed food and water ad libitum during the treatment period; 2 hours for AA and 4 hours for PMA. The mice were sacrificed by cervical dislocation and a 6 mm diameter disc of tissue punched from both the treated and untreated ears. The tissue biopsies were immediately weighed and the weight increase of the treated ear relative to the weight of the untreated ear determined.
# Results: The effect of representative compounds on Mouse Ear Edema
compound,measurement,setting,value
COc1ccc(O)c(CSc2ncc(C)n2C)c1 [drawing 11],Edema (% inhibition),Rat Foot Edema,54%
COc1ccc(O)c(CSc2ncccn2)c1 [drawing 15],Edema (% inhibition),Rat Foot Edema,3%
COc1ccc(O)c(CSc2nccn2C)c1 [drawing 5],Edema (% inhibition),Mouse Ear Edema,45%
COc1ccc(O)c(CSc2nccn2C)c1 [drawing 10],Edema (% inhibition),Rat Foot Edema,74%
COc1ccc(O)c(CSc2nc3ccccc3[nH]2)c1 [drawing 14],Edema (% inhibition),Rat Foot Edema,21%
COc1ccc(O)c(CSc2nc3ccccc3[nH]2)c1 [drawing 7],Edema (% inhibition),Mouse Ear Edema,76%
Cc1cnc(SCc2cc3c(cc2O)CCCO3)n1C,% Inhibition,"Rat Foot Edema; Table 2b, Dosage (mpk) 30",42%
COc1ccc(O)c(CSc2nc(C)cn2C)c1,Edema (% inhibition),Rat Foot Edema,77%
COc1ccc(O)c(CSc2nc(C)c[nH]2)c1,Edema (% inhibition),Rat Foot Edema,74%
COc1ccc(O)c(CSc2ncc(C)n2C)c1 [drawing 6],Edema (% inhibition),Mouse Ear Edema,65%
COc1ccc(O)c(CSc2ncccn2)c1 [drawing 8],Edema (% inhibition),Mouse Ear Edema,32%
